Experimental data from the supplement of paper PMC7017272.
± gives the standard deviation of the averaged measurements.

What was measured:
Details in all cases: treatment time: 3 days
UT-SCC-24A [1] = assay: drug sensitivity score (DSS); higher = more sensitive
Method: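 HNSCC cell lines (500 cells/well, 384-well) were cultured on plastic, on top of (2D) or embedded (3D) in Matrigel or human leiomyoma matrix Myogel (500 ug/mL; Myogel 3D mixed with rat collagen I). Cells were treated for 3 days with 5 ten-fold concentrations of each drug, and viability was read by CellTiter-Glo. Suffixes _1/_2/_3 on drug names are replicates.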

UT-SCC-106A [2] = assay: maximal % inhibition of viability relative to DMSO; higher = stronger effect
Method: (§1)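 HNSCC cell lines (500 cells/well, 384-well) were cultured on plastic, on top of (2D) or embedded (3D) in Matrigel or human leiomyoma matrix Myogel (500 ug/mL; Myogel 3D mixed with rat collagen I). Cells were treated for 3 days with 5 ten-fold concentrations of each drug, and viability was read by CellTiter-Glo. Viability was normalised to DMSO and benzethonium chloride controls and fitted with the FIMM DSRT pipeline to give IC50 (nM), maximal % inhibition and DSS. Suffixes _1/_2/_3 are replicates. Only inhibition-mode (IC50) fits are kept.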

UT-SCC-14 [3] = assay: as above
Method: as §1

UT-SCC-24B = assay: as above
Method: as §1

UT-SCC-28 = assay: as above
Method: as §1

UT-SCC-40 = assay: as above
Method: as §1

UT-SCC-42A [4] = assay: as above
Method: as §1

UT-SCC-42B [5] = assay: as above
Method: as §1

UT-SCC-44 = assay: as above
Method: as §1

UT-SCC-73 = assay: as above
Method: as §1

UT-SCC-81 = assay: as above
Method: as §1

UT-SCC-8 = assay: as above
Method: as §1

UT-SCC-106A [6] = assay: drug sensitivity score (DSS); higher = more sensitive; extreme values may be limits of the assay
Outline: (§2)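 HPV-negative HNSCC cell lines were plated at 500 cells/well in 384-well plates, either on plastic, on wells coated with Matrigel or Myogel (500 µg/mL), or embedded in Matrigel or Myogel plus rat collagen I. Each compound was tested at five 10-fold concentrations over 3 days. Viability was measured by CellTiter-Glo 2.0 luminescence, and IC50, maximal inhibition and drug sensitivity score came from percent-inhibition dose–response curves fitted in the FIMM pipeline after normalisation to vehicle (0.1% DMSO) and cell-killing control wells.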

UT-SCC-14 [7] = assay: as above
Outline: as §2

UT-SCC-42A [8] = assay: as above
Outline: as §2

UT-SCC-42B [9] = assay: as above
Outline: as §2

UT-SCC-24A [10] = assay: relative IC50 (midpoint of the fitted curve; maximal inhibition may be below 50%); higher = less potent
Method: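 HNSCC cell lines (500 cells/well, 384-well) were cultured on plastic, on top of (2D) or embedded (3D) in Matrigel or human leiomyoma matrix Myogel (500 ug/mL; Myogel 3D mixed with rat collagen I). Cells were treated for 3 days with 5 ten-fold concentrations of each drug, and viability was read by CellTiter-Glo. Viability was normalised to DMSO (0% inhibition) and 100 uM benzethonium chloride (100% inhibition) controls and fitted with the FIMM DSRT pipeline to give IC50 (nM), maximal % inhibition and the drug sensitivity score (DSS). Suffixes _1/_2/_3 on drug names are replicates.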

[11] = culture condition: embedded in Matrigel
[12] = culture condition: embedded in Myogel + collagen I
[13] = culture condition: on top of Matrigel
[14] = culture condition: on top of Myogel
[15] = culture condition: plastic 2D (no matrix)

relative IC50 (UT-SCC-24A [10]; [11]): 8.03 nM
relative IC50 (UT-SCC-24A [10]; [13]): 9.88 nM
relative IC50 (UT-SCC-24A [10]; [15]): 12.8 nM
SMILES: CN(C)C/C=C/C(=O)Nc1cc2c(Nc3ccc(F)c(Cl)c3)ncnc2cc1O[C@H]1CCOC1 [Afatinib]
drug sensitivity score (UT-SCC-24A [1]; [11]): 20.6 ± 3.3 DSS
drug sensitivity score (UT-SCC-24A [1]; [12]): 8.9 ± 5.3 DSS
drug sensitivity score (UT-SCC-24A [1]; [13]): 16.6 ± 2.1 DSS
drug sensitivity score (UT-SCC-24A [1]; [14]): 2.93 ± 2.1 DSS
drug sensitivity score (UT-SCC-24A [1]; [15]): 15.6 ± 3.1 DSS
maximal % inhibition of viability (UT-SCC-106A [2]; [11]): 43.3 ± 3.5%
maximal % inhibition of viability (UT-SCC-106A [2]; [12]): 7.93 ± 2.1%
maximal % inhibition of viability (UT-SCC-106A [2]; [13]): 56.6 ± 1.3%
maximal % inhibition of viability (UT-SCC-106A [2]; [14]): 8.37 ± 4.6%
maximal % inhibition of viability (UT-SCC-106A [2]; [15]): 60.4 ± 4.3%
maximal % inhibition of viability (UT-SCC-14 [3]; [11]): 74.9 ± 5.2%
maximal % inhibition of viability (UT-SCC-14 [3]; [12]): 44.3 ± 12%
maximal % inhibition of viability (UT-SCC-14 [3]; [13]): 74.6 ± 7.7%
maximal % inhibition of viability (UT-SCC-14 [3]; [14]): 47.3 ± 16%
maximal % inhibition of viability (UT-SCC-14 [3]; [15]): 71.4 ± 10%
maximal % inhibition of viability (UT-SCC-24B; [11]): 63.2 ± 3%
maximal % inhibition of viability (UT-SCC-24B; [12]): 37.8 ± 14%
maximal % inhibition of viability (UT-SCC-24B; [13]): 56.5 ± 1.6%
maximal % inhibition of viability (UT-SCC-24B; [14]): 21.4 ± 3.8%
maximal % inhibition of viability (UT-SCC-24B; [15]): 71.4 ± 3.5%
maximal % inhibition of viability (UT-SCC-28; [11]): 3.87 ± 5.3%
maximal % inhibition of viability (UT-SCC-28; [12]): 14.7 ± 6.2%
maximal % inhibition of viability (UT-SCC-28; [13]): 12 ± 4%
maximal % inhibition of viability (UT-SCC-28; [15]): 8.87 ± 2.8%
maximal % inhibition of viability (UT-SCC-40; [11]): 80.3 ± 2.6%
maximal % inhibition of viability (UT-SCC-40; [12]): 26.2 ± 14%
maximal % inhibition of viability (UT-SCC-40; [13]): 74.2 ± 2.8%
maximal % inhibition of viability (UT-SCC-40; [14]): 22.6 ± 4.6%
maximal % inhibition of viability (UT-SCC-40; [15]): 59.8 ± 7.3%
maximal % inhibition of viability (UT-SCC-42A [4]; [11]): 51.6 ± 4%
maximal % inhibition of viability (UT-SCC-42A [4]; [12]): 13.4 ± 9.6%
maximal % inhibition of viability (UT-SCC-42A [4]; [13]): 54 ± 2.1%
maximal % inhibition of viability (UT-SCC-42A [4]; [14]): 26.6 ± 1.1%
maximal % inhibition of viability (UT-SCC-42A [4]; [15]): 50.7 ± 2.2%
maximal % inhibition of viability (UT-SCC-42B [5]; [11]): 73.7 ± 4.9%
maximal % inhibition of viability (UT-SCC-42B [5]; [13]): 54.4 ± 3.4%
maximal % inhibition of viability (UT-SCC-42B [5]; [14]): 9.53 ± 0.45%
maximal % inhibition of viability (UT-SCC-42B [5]; [15]): 37.8 ± 4.5%
maximal % inhibition of viability (UT-SCC-44; [11]): 7.03 ± 6.5%
maximal % inhibition of viability (UT-SCC-44; [12]): 1 ± 1.7%
maximal % inhibition of viability (UT-SCC-44; [13]): 9.97 ± 9.3%
maximal % inhibition of viability (UT-SCC-44; [14]): 9.63 ± 7.3%
maximal % inhibition of viability (UT-SCC-44; [15]): 4.6 ± 5.6%
maximal % inhibition of viability (UT-SCC-73; [11]): 20.2 ± 7.8%
maximal % inhibition of viability (UT-SCC-73; [12]): 25.6 ± 22%
maximal % inhibition of viability (UT-SCC-73; [13]): 17.1 ± 3.4%
maximal % inhibition of viability (UT-SCC-73; [14]): 11.5 ± 7.3%
maximal % inhibition of viability (UT-SCC-73; [15]): 16.7 ± 4.8%
maximal % inhibition of viability (UT-SCC-81; [11]): 88.3 ± 2.3%
maximal % inhibition of viability (UT-SCC-81; [12]): 33.4 ± 37%
maximal % inhibition of viability (UT-SCC-81; [13]): 83.3 ± 2.2%
maximal % inhibition of viability (UT-SCC-81; [14]): 23 ± 7.8%
maximal % inhibition of viability (UT-SCC-81; [15]): 71.2 ± 5%
maximal % inhibition of viability (UT-SCC-8; [11]): 96.67 ± 0.42%
maximal % inhibition of viability (UT-SCC-8; [12]): 22.4 ± 19%
maximal % inhibition of viability (UT-SCC-8; [13]): 94.3 ± 0.36%
maximal % inhibition of viability (UT-SCC-8; [14]): 45.4 ± 12%
maximal % inhibition of viability (UT-SCC-8; [15]): 90.7 ± 1.6%
drug sensitivity score (UT-SCC-106A [6]; [11]): 10.9 ± 1.4 DSS
drug sensitivity score (UT-SCC-106A [6]; [12]): 0 DSS
drug sensitivity score (UT-SCC-106A [6]; [13]): 13.7 ± 2.2 DSS
drug sensitivity score (UT-SCC-106A [6]; [14]): 0.133 ± 0.23 DSS
drug sensitivity score (UT-SCC-106A [6]; [15]): 13.7 ± 1.7 DSS
drug sensitivity score (UT-SCC-14 [7]; [11]): 13.8 ± 3 DSS
drug sensitivity score (UT-SCC-14 [7]; [12]): 9.3 ± 6.4 DSS
drug sensitivity score (UT-SCC-14 [7]; [13]): 12.5 ± 1.4 DSS
drug sensitivity score (UT-SCC-14 [7]; [14]): 7.33 ± 3.8 DSS
drug sensitivity score (UT-SCC-14 [7]; [15]): 12.1 ± 4.1 DSS
drug sensitivity score (UT-SCC-42A [8]; [11]): 9.73 ± 3.1 DSS
drug sensitivity score (UT-SCC-42A [8]; [12]): 0.767 ± 1.3 DSS
drug sensitivity score (UT-SCC-42A [8]; [13]): 12.7 ± 1.4 DSS
drug sensitivity score (UT-SCC-42A [8]; [14]): 4.33 ± 1.3 DSS
drug sensitivity score (UT-SCC-42A [8]; [15]): 10.3 ± 2.3 DSS
drug sensitivity score (UT-SCC-42B [9]; [11]): 15.7 ± 1.7 DSS
drug sensitivity score (UT-SCC-42B [9]; [13]): 11.6 ± 1.6 DSS
drug sensitivity score (UT-SCC-42B [9]; [14]): 0 DSS
drug sensitivity score (UT-SCC-42B [9]; [15]): 6.6 ± 0.72 DSS
